Assay results reported in patent US9227960B2, “Bisaryl (thio)morpholine derivatives as S1P modulators” (ABBVIE B.V., priority 2010, dated 2016).
Where a name gives a salt, the structure may show the parent alone.

Tests used:
human S1P5 receptor = biological target: T1, human S1P5 receptor (Homo sapiens, UniProt Q9H228); test: In vitro functional activity (agonism) on human S1P5 receptors, CHO-human-S1P5-Aequorin assay; assay type: cell-based; conditions: CHO-human-S1P5-Aequorin cells, luminescence, read-out: S1P5 pEC50 (converted)
T1 construct: host or cells: CHO (AequoScreen recombinant cell line, co-expressing mitochondrially targeted apo-Aequorin)
T1 sequence (Q9H228 whole entry): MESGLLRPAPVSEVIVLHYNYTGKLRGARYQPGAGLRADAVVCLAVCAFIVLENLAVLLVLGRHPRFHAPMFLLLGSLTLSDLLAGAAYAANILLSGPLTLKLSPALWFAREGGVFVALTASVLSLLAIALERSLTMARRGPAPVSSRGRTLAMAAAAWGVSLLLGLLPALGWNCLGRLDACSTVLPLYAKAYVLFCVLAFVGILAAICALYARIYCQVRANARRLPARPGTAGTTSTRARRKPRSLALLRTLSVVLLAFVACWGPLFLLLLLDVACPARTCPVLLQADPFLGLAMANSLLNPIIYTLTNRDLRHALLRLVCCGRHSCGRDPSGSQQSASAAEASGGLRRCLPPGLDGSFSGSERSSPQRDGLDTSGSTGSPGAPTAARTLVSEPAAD
Source text: In Vitro Functional Activity (Agonism) on Human S1P5 Receptors
(§1) The CHO-human-S1P5-Aecorin assay was bought from Euroscreen, Brussels (Euroscreen, Technical dossier, Human Lysophospholid S1P5 (Edg8) receptor, DNA clone and CHO AequoScreen™ recombinant cell-line, catalog no: ES-593-A, September 2006). Human-S1P5-Aequorin cells express mitochondrial targeted apo-Aequorin. Cells have to be loaded with coelanterazine, in order to reconstitute active Aequorin. After binding of agonists to the human S1P5 receptor the intracellular calcium concentration increases and binding of calcium to the apo-Aequorin/coelenterazine complex leads to an oxidation reaction of coelenterazine, which results in the production of apo-Aequorin, coelenteramide, CO2 and light (λmax 469 nm). This luminescent response is dependent on the agonist concentration. Luminescence is measured using the MicroBeta Jet (Perkin Elmer). Agonistic effects of compounds are expressed as pEC50. Compounds were tested at a 10 points half log concentration range, and 3 independent experiments were performed in single point's measurements.

human S1P3 receptor = biological target: T2, human S1P3 receptor (Homo sapiens, UniProt Q99500); test: In vitro functional activity (agonism) on human S1P3 receptors, CHO-human-S1P3-Aequorin assay; assay type: cell-based; conditions: CHO/Gα16/AEQ/h-S1P3 cells, luminescence, read-out: S1P3 pEC50 (converted)
T2 construct: cell line established at Solvay Pharmaceuticals; host or cells: CHO K1 (CHO/Gα16/AEQ/h-S1P3)
T2 sequence (Q99500 whole entry): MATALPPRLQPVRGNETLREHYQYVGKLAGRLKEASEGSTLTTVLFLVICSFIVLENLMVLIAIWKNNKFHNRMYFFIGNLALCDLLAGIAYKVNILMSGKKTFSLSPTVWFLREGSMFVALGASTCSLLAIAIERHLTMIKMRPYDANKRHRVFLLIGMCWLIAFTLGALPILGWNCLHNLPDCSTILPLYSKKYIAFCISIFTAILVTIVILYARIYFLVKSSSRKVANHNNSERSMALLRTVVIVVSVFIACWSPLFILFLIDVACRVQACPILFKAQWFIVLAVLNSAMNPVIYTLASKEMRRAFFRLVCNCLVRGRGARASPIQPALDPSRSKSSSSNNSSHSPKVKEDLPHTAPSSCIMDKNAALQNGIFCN
Source text: In Vitro Functional Activity (Agonism) on Human S1P3 Receptors
The CHO-human-S1P3-Aeqorin assay (CHO/Gα16/AEQ/h-S1P3) was established at Solvay Pharmaceuticals. The plasmid DNA coding for the S1P3 receptor (accession number in GenBank NM_005226 was purchased from UMR cDNA resource Centre (Rolla, Mo.). The pcDNA3.1/hS1P3 construct carrying the mitochondrially targeted apo-Aeqorin and Gα16 protein was transfected in CHO K1 cell-line.
as §1, with “Human-S1P3-Aequorin” for “The CHO-human-S1P5-Aecorin assay was bought from Euroscreen, Brussels (Euroscreen, Technical dossier, Human Lysophospholid S1P5 (Edg8) receptor, DNA clone and CHO AequoScreen™ recombinant cell-line, catalog no: ES-593-A, September 2006). Human-S1P5-Aequorin”, “S1P3” for “S1P5”

human S1P1 = biological target: T3, human S1P1 (Homo sapiens, UniProt P21453); test: In vitro functional activity (agonism) on human S1P1 receptors, CHO-K1-Human S1P1-c-AMP assay; assay type: cell-based; conditions: CHO-K1 cells expressing human S1P1, cAMP with Forskolin (HTRF), read-out: S1P1 pEC50 (converted)
T3 construct: host or cells: CHO-K1
T3 sequence (P21453 whole entry): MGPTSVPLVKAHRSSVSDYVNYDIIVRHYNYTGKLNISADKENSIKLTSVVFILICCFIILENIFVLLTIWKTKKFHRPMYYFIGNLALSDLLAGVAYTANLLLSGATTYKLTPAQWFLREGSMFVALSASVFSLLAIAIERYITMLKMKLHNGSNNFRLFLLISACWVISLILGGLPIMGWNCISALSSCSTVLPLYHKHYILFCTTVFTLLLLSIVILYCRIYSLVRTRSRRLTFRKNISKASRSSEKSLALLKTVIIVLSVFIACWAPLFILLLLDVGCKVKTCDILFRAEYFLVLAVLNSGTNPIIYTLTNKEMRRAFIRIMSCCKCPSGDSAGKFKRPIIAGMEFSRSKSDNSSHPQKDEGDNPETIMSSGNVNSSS
Description: In Vitro Functional Activity (Agonism) on Human S1P1 Receptors
The CHO-K1-Human S1P1-c-AMP assay was performed at Euroscreenfast, Brussels (Euroscreen, Human S1P1 coupling […] (Edg1) receptor, catalog no: FAST-0197C, December 2009).
Recombinant CHO-K1 cells expressing human S1P1, grown to mid-log Phase in culture media without antibiotics, detached, centrifuged and re-suspended. For agonist testing cells are mixed with compound and Forskolin and incubated at room temperature. Cells are lyses and cAMP concentration are estimated, according to the manufacturer specification, With the HTRF kit from CIS-BIO International (cat n° 62AM2PEB).
Agonistic effects of compounds are expressed as a percentage of the activity of the reference compound at its EC100 concentration, EC50 is calculated and results are reported as pEC50. Compounds were tested at a 10 points half log concentration range duplicated in 1 experiment.

| Compound | melting point [°C] | EC50 (human S1P5 receptor) [µM] | EC50 (human S1P3 receptor) [µM] | EC50 (human S1P1) [µM] |
| --- | --- | --- | --- | --- |
| Cl.O=C(O)CCN1CCOC(c2ccc(Oc3c(Cl)cccc3Cl)c(Cl)c2)C1 (centres unmarked) | 224 to 227 | – | – | – |
| Cl.O=C(O)CCN1CCOC(c2ccc(Oc3c(Cl)cccc3Cl)cc2C(F)(F)F)C1 (centres unmarked) | 135 to 136 | – | – | – |
| Cl.O=C(O)CCN1CCSC(c2ccc(Oc3ccccc3Cl)cc2)C1 (centres unmarked) | 155 to 160 | – | – | – |
| Cc1cccc(Oc2ccc(C3CN(CCCC(=O)O)CCO3)cc2)c1C (centres unmarked) (as salt: hydrochloride) [Compound 87, 4-{2-[4-(2,3-Dimethyl-phenoxy)-phenyl]-morpholin-4-yl}-butyric acid hydrochloride] | 225 to 227 | – | – | – |
| O=C(O)CCN1CCOC(c2ccc(C(=O)c3c(Cl)cccc3Cl)cc2)C1 (centres unmarked) [Compound 6, 3-{2-[4-(2,6-Dichloro-benzoyl)-phenyl]-morpholin-4-yl}-propionic acid hydrochloride] | – | 0.501 | > 10 | > 3.16 |
| O=C(O)CCN1CCOC(c2ccc(Oc3cccc4ccccc34)cc2)C1 (centres unmarked) [Compound 29, 3-{2-[4-(Naphthalen-1-yloxy)-phenyl]-morpholin-4-yl}-propionic acid hydrochloride] | – | 0.0631 | > 10 | – |
| O=C(O)CCN1CCOC(c2ccc(Oc3ccccc3C(F)(F)F)cc2)C1 (centres unmarked) [Compound 35, 3-{2-[4-(2-Trifluoromethyl-phenoxy)-phenyl]-morpholin-4-yl}-propionic acid hydrochloride] | – | 0.2 | > 10 | – |
| Cc1ccc(Oc2ccc(C3CN(CCC(=O)O)CCO3)cc2)cc1C (centres unmarked) [Compound 47, 3-{2-[4-(3,4-Dimethyl-phenoxy)-phenyl]-morpholin-4-yl}-propionic acid hydrochloride] | – | 0.2 | > 10 | – |
| O=C(O)CCN1CCOC(c2ccc(Oc3ccc(OCc4ccccc4)cc3)cc2)C1 (centres unmarked) [Compound 57, 3-{2-[4-(4-Benzyloxy-phenoxy)-phenyl]-morpholin-4-yl}-propionic acid hydrochloride] | – | 2 | > 10 | – |
| Cc1ccc(Oc2ccc(C3CN(CCC(=O)O)CCO3)cc2)cc1 (centres unmarked) [Compound 64, 3-[2-(4-p-Tolyloxy-phenyl)-morpholin-4-yl]-propionic acid hydrochloride] | – | 1.58 | > 10 | – |
| O=C(O)CCN1CCOC(c2ccc(Oc3ccc4ccccc4c3)cc2)C1 (centres unmarked) [Compound 68, 3-{2-[4-(Naphthalen-2-yloxy)-phenyl]-morpholin-4-yl}-propionic acid hydrochloride] | – | 0.631 | > 10 | – |
| CC1(C)CN(CCC(=O)O)CC(c2ccc(Oc3c(Cl)cccc3Cl)cc2)O1 (centres unmarked) [Compound 73, 3-{6-[4-(2,6-Dichloro-phenoxy)-phenyl]-2,2-dimethyl-morpholin-4-yl}-propionic acid] | – | 0.158 | – | > 3.16 |
| Cc1cccc(Oc2ccc(C3(C)CN(CCC(=O)O)CCO3)cc2)c1C (centres unmarked) [Compound 80, 3-{2-[4-(2,3-Dimethyl-phenoxy)-phenyl]-2-methyl-morpholin-4-yl}-propionic acid hydrochloride] | – | 0.631 | > 10 | > 31.6 |

Results, then the compound that gave them:

| melting point [°C] | EC50 (human S1P5 receptor) [µM] | EC50 (human S1P3 receptor) [µM] | EC50 (human S1P1) [µM] | Compound |
| --- | --- | --- | --- | --- |
| 207 to 209 | – | – | – | Cl.O=C(O)CCN1CCOC(c2ccc(Oc3c(Cl)cccc3Cl)cc2F)C1 (centres unmarked) |
| 178 to 183 | – | – | – | Cc1cccc(Oc2ccc(C3CN(CCC(=O)O)CCS3)cc2)c1C.Cl (centres unmarked) |
| 192.5 to 195 | – | – | – | Cc1cccc(Cl)c1Oc1ccc(C2CN(CCC(=O)O)CCS2)cc1.Cl (centres unmarked) |
| 219 to 223 | – | – | – | Cc1cccc(C)c1Oc1cccc(C2CN(CCC(=O)O)CCO2)c1 (centres unmarked) (as salt: hydrochloride) |
| – | 0.631 | > 10 | – | Cc1cccc(C)c1Nc1ccc(C2CN(CCC(=O)O)CCO2)cc1 (centres unmarked) [Compound 2, 3-{2-[4-(2,6-Dimethyl-phenylamino)-phenyl]-morpholin-4-yl}-propionic acid hydrochloride] |
| – | 0.501 | > 10 | – | Cc1ccc(Oc2ccc(C3CN(CCC(=O)O)CCO3)cc2)cc1Cl (centres unmarked) [Compound 15, 3-{2-[4-(3-Chloro-4-methyl-phenoxy)-phenyl]-morpholin-4-yl}-propionic acid hydrochloride] |
| – | 2 | 5.01 | – | CCCCc1ccc(Oc2ccc(C3CN(CCC(=O)O)CCO3)cc2)cc1 (centres unmarked) [Compound 26, 3-{2-[4-(4-Butyl-phenoxy)-phenyl]-morpholin-4-yl}-propionic acid hydrochloride] |
| – | 1 | – | – | Cc1cccc(Oc2ccc(C3CN(CCCC(=O)O)CCO3)cc2)c1C (centres unmarked) [Compound 87, 4-{2-[4-(2,3-Dimethyl-phenoxy)-phenyl]-morpholin-4-yl}-butyric acid hydrochloride] |
